{"source": "patent US20070191476A1", "about": "“Antioxidant Components for Reduction of Nucleic Acid Damage in Companion Animals” (Mars, Incorporated, priority 2001, published 2007)", "key": {"[1]": {"system": "canine leukocytes", "description": "(§1) All cats and dogs were housed at the Waltham Centre for Pet Nutrition, in conditions resembling those of pet cats and dogs, and were fed commercially available, complete diets throughout the study period. Fasted blood samples (5 ml) were drawn from the jugular vein of 12 healthy adult cats (7.2±4.8 years) and 12 healthy adult dogs (4.5±2.3 years) into lithium herparin vials and diluted 1:1 in PBS. Leukocytes were isolated over Histopaque 1083 gradients (Sigma, UK) by centrifugation at 1000 g for 40 minutes. Leukocytes were washed twice in 10 mls PBS and centrifuged at 700 g for 10 minutes before counting and storing at 1×10^6 cells/ml in 90% fetal calf serum (Sigma) and 10% dimethyl sulphoxide (Sigma) at −80° C. until required.\n(§2) DNA damage was induced in vitro by exposing the leukocytes to a range of H2O2 concentrations (0-250 μM diluted in PBSa) to determine the optimal level of H2O2 required to induce a significant increase in DNA damage above background endogenous DNA damage levels. Leukocytes were thawed rapidly in a 37° C. water bath, washed twice in PBSa, centrifuged at 700 g for 15 minutes and resuspended in PBSa at […]. Cells were re-suspended in 0 μM, 10 μM, 50 μM, 100 μM and 250 μM H2O2 in PBSa and incubated on ice for 5 minutes. Treated leukocytes were centrifuged at 700 g for 15 minutes at 4° C. ready for slide preparation.\n(§3) Two layers of agarose were prepared. For the first layer, 85 μl 1% (w/v) high-melting point (HMP) agarose (Sigma) prepared at 95° C. in PBSa was pipetted onto fully frosted microscope slides, covered with an 18×18 mm coverslip and allowed to set at 4° C. for 10 minutes. Untreated and hydrogen peroxide-treated leukocytes were washed twice in PBS, centrifuged at 700 g for 15 minutes and resuspended at 2×10^5 in 85 μl 1% (w/v) low melting point (LMP) agarose (Sigma). The cell suspension was then pipetted over the set HMP agarose layer, covered with an 18×18 mm coverslip and allowed to set at 4° C. for 10 minutes. After the coverslips were removed, the slides were immersed in freshly prepared cold lysis solution."}, "[2]": {"system": "feline leukocytes", "description": "as §1, §2, §3"}, "[3]": {"conditions": "10-250 μM H2O2, 5 minutes, p<0.001"}}, "data": [{"smiles": "OO", "note": "[H2O2, hydrogen peroxide]", "values": [{"measurement": "DNA damage in relation to all other concentrations of H2O2", "setting": "[1]; 250 μM H2O2, FIG. 2", "value": "significant increases in DNA damage"}, {"measurement": "DNA damage (visual comet score) versus untreated samples", "setting": "[1]; [3]", "value": "Statistically significant increases in DNA damage"}, {"measurement": "DNA damage in relation to all other concentrations of H2O2", "setting": "[2]; 250 μM H2O2, FIG. 1", "value": "significant increases in DNA damage"}, {"measurement": "DNA damage (visual comet score) versus untreated samples", "setting": "[2]; [3]", "value": "Statistically significant increases in DNA damage"}]}]}
